# Assay results reported in patent US5589500A, “Substituted 1,1,2-triphenylbutenes and their use in the treatment of cancer” (priority 1992, dated 1996).
# Where two headings read alike, the source gives them in different places.
# How the values were obtained:
# [1] = biological target: calmodulin dependent cAMP-PDE (Homo sapiens, UniProt P0DP23); experiment: Antagonism of calmodulin dependent cAMP-PDE (inhibiting the activation of cyclic AMP phosphodiesterase by calmodulin); format: biochemical
# [2] = tested on: MCF-7 human breast cancer cell line; experiment: Short term in vitro cytotoxicity against MCF-7 human breast cancer cell line; details: MCF7, read-out: Short Term in vitro cytotoxicity MCF-7 IC50 ± SD
# Procedure: For some compounds, cytotoxicity against the MCF-7 human breast cancer cell line was determined.
# oestrogen receptor (ER) = biological target: T1, oestrogen receptor (ER) (Rattus norvegicus, UniProt P06211); experiment: Relative binding affinity for the oestrogen receptor, rat uterine cytosol competitive binding assay
# T1 construct: from tissue; host or cells: rat uterine cytosol
# T1 sequence (P06211 1-600): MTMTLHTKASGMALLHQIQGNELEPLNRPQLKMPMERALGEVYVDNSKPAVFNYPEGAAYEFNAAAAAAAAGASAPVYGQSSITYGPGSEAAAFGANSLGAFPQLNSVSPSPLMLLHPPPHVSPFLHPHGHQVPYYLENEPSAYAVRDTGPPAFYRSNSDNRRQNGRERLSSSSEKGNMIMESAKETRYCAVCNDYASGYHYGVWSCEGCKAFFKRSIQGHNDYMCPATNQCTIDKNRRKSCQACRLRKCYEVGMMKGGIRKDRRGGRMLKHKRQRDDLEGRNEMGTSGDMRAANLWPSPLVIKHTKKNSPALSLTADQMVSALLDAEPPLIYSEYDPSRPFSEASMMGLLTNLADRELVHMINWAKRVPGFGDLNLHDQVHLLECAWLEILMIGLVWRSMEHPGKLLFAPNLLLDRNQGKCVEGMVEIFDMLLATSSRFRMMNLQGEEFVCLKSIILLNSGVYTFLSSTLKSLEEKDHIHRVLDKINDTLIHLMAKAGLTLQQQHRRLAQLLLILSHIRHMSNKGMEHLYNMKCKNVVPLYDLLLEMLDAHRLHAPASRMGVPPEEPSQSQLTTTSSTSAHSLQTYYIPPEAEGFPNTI
# Procedure: For some compounds, cytotoxicity against the MCF-7 human breast cancer cell line was determined. The test methods used were those described by M. G. Rowlands et al., Biochemical Pharmacology 40, 283-289 (1990). The relative binding offinity (RBA) for the oestrogen receptor (ER) was measured in a rat uterine cystosol competitive binding assay as described by A. E. Wakeling, 1987 (Chapter 7 p219-236 in "STEROID HORMONES--A PRACTICAL APPROACH" Eds B. Green and R. E. Leake, IRL Press Ltd, Oxford, UK).
# [3] = tested on: receptor from calf uterine cytosol; details: calf uterine cytosol (oestradiol = 100); J. Med. Chem. 32, 2527-2533 (1989); cited from earlier work
# rat uterine receptor = details: Cancer Research 51, 5851-5858 (1991); cited from earlier work
# oestrogen receptor = details: rat uterine cytosol competitive binding assay; J. Med. Chem. 25, 167-171 (1982); cited from earlier work
# [4] = ± SD, read-out: Antagonism of calmodulin dependent cAMP-PDE IC50 ± SD
SMILES,"IC50 [1, 4]",IC50 [2],"Binding affinity for ER, RBA (oestrogen receptor (ER))",RBA with receptor from calf uterine cytosol [3],RBA for rat uterine receptor (rat uterine receptor),IC50 [1],binding affinity for the oestrogen receptor compared with pyrrolidino tamoxifen itself (n=2) (oestrogen receptor)
"CC/C(=C(\c1ccc(I)cc1)c1ccc(OCCCCN2CCCC2)cc1)c1ccccc1 [n = 4, NR^1 = R^2 = pyrrolidino, E-1(4-(4-(N-pyrrolidino)butoxy)phenyl)-1-(4-iodophenyl)-2-phenylbutene]",1010 ± 80 nM,3990 ± 600 nM,9,,,,
"CC/C(=C(\c1ccc(I)cc1)c1ccc(OCCCCN(C)C)cc1)c1ccccc1 [n = 4, R^1 = R^2 = CH3, E-1-(4-(4-(Dimethylamino)butoxy)phenyl)-1-(4-iodophenyl)-2-phenyl-1-butene]",2250 ± 180 nM,,25,,,,
CC/C(=C(\c1ccc(I)cc1)c1ccc(OCCN2CCCC2)cc1)c1ccccc1 [Idoxifene],1450 ± 80 nM,7270 ± 380 nM,,5,12.5,,
CC/C(=C(\c1ccccc1)c1ccc(OCCN(C)C)cc1)c1ccccc1 [Tamoxifen],,14000 ± 1000 nM,,1,5,6750 ± 1060 nM,
"CC/C(=C(\c1ccc(I)cc1)c1ccc(OCCCN(C)C)cc1)c1ccccc1 [n = 3, R^1 = R^2 = CH3, E-1-(4-(3-(Dimethylamino)propoxy)phenyl)-1-(4-1iodophenyl)-2,phenyl-1-butene]",2020 ± 170 nM,,,,,,
CC/C(=C(\c1ccccc1)c1ccc(OCCCN2CCCC2)cc1)c1ccccc1,,,,,,,lower binding affinity for the oestrogen receptor
C[C@]12CC[C@@H]3c4ccc(O)cc4CC[C@H]3[C@@H]1CC[C@@H]2O [17β-estradiol],,,,100,,,
"CC/C(=C(\c1ccc(I)cc1)c1ccc(OCCCCCCCCN2CCCC2)cc1)c1ccccc1 [n = 8, NR^1 = R^2 = pyrrolidino]",260 ± 50 nM,,4,,,,
CC/C(=C(\c1ccc(I)cc1)c1ccc(OCCN(C)C)cc1)c1ccccc1 [4-iodotamoxifen],2300 ± 420 nM,7630 ± 60 nM,,5,12.5,,
"CC/C(=C(\c1ccc(I)cc1)c1ccc(OCCCN2CCCC2)cc1)c1ccccc1 [n = 3, NR^1 = R^2 = pyrrolidino, E-1-(4-(3-(N-pyrrolidino)propoxy)phenyl)-1-(4-iodophenyl)-2-phenyl-1-butene]",1110 ± 70 nM,4500 ± 70 nM,23,,,,
